# From patent publication US6017512A, “Radiolabeled peptides” (Diatide, Inc., priority 1997, dated 2000)
# pKi: −log10 of the molar value. Numbered stars: 1 amine (or outer) side, 2 acyl side, 3 side chain; on linkers, the order of the positions; unused ones are H or OH. Bridge positions count the residues as written; N and C are the ends. Square brackets hold non-standard residues; d marks the D form. Peptide text beside a SMILES is read from it. * marks the point of attachment. hhCys(CH2CO) = O=C([C@H](CCCSCC(=O)[*:3])N[*:1])[*:2]; X9 = CC(C)(S)CNCCN(CCCCC(=O)*)CC(C)(C)S; X3 = CC(C)(S)CNCCN(CCCCCN*)CC(C)(C)S; NMeF = CN[C@@H](Cc1ccccc1)C(=O)O; hCys = N[C@@H](CCS)C(=O)O
# Biological target: T1, somatostatin receptors (Rattus norvegicus, UniProt P30680)
# T1 construct: endogenous in cells; host or cells: AR42J rat pancreatic tumor cell line, membrane preparation
# T1 sequence (P30680 whole entry): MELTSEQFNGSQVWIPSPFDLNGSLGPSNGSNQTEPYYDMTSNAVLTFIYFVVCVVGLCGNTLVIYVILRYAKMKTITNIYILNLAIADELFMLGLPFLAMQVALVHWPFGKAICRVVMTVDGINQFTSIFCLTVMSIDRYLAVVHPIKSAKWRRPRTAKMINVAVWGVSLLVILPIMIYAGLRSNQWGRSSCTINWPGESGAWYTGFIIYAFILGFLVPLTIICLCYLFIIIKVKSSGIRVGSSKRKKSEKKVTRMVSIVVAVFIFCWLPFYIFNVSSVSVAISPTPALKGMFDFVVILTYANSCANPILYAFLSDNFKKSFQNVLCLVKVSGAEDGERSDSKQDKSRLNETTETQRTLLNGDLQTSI
# Experiment: Inhibition of binding of [125I-Tyr11]somatostatin-14 to AR42J rat pancreatic tumor cell membranes
# Settings: uncomplexed peptides, displacement of [125I-Tyr11]somatostatin-14 (0.5 nM)
# Protocol: Inhibition of Binding of [^125 I-Tyr^11 ]somatostatin-14 to AR42J Rat Pancreatic Tumor Cell Membranes
# The rat pancreatic tumor cell line AR42J which expresses the somatostatin receptor was cultured in Dulbecco's minimal essential media (DMEM) supplemented with 10% fetal bovine serum (FBS) and 8 mM glutamine in a humidified 5% CO2 atmosphere at 37° C. in T-flasks. Harvested cells were homogenized in cold 50 mM Tris-HCl buffer (pH 7.4) and the homogenate then centrifuged at 39,000 g for 10 min at 4° C. Pellets were washed once with buffer and then resuspended in an ice-cold solution of 10 mM Tris-HCl (pH 7.4). Equal aliquots of this cell membrane preparation were incubated with [^125 I-Tyr^11 ]somatostatin-14 (at a final concentration of 0.5 nM and 750,000 cpm/mL, at a specific activity of 2000 Ci/mmol, Amersham, Arlington Heights, Ill.) and peptide or peptide-rheniumcomplex at a final concentration of from 10^-11 M to 10^-6 M in a solution of 50 mM HEPES (pH 7.4) containing 1% bovine serum albumin (BSA), 5 mM MgCl2, Trasylol (200,000 International Units), bacitracin (0.02 mg/mL) and phenylmethylsulfonylfluoride (0.02 mg/mL) for 25 min at 30° C. Using a filtration manifold, this mixture was filtered through a polyethyleneimine-washed GC/F filter (Whatman, Maidstone, England), and the residue remaining on the filter washed thrice with 5 mL cold HEPES buffer. The filter and a sample of the filter washings were then counted in a gamma counter. To assess non-specific binding, the assay was performed in the presence of unlabeled somatostatin-14 at 200 nM. Data analysis including Hill plots of the data provided inhibition constants (see Bylund & Yamamura, "Methods of receptor binding", in Methods in Neurotransmitter Receptor Analysis, Yamamura et al., eds., Raven Press: New York, 1990).
row,SMILES,pKi
1,C[C@@H](O)[C@@H]1NC(=O)[C@H](CCCCN)NC(=O)[C@@H](Cc2c[nH]c3ccccc23)NC(=O)[C@H](Cc2ccccc2)NC(=O)[C@H](Cc2ccccc2)NC(=O)CSCC[C@@H](C(=O)O)NC(=O)[C@H](Cc2ccccc2)NC1=O [CH2 CO.FFWD KTF.Hcy] ({CH2CO}-FF[dW]KTF[hCys]-OH; thioether N-7),8.01
2,C[C@@H](O)[C@@H]1NC(=O)[C@H](CCCCN)NC(=O)[C@@H](Cc2c[nH]c3ccccc23)NC(=O)[C@H](Cc2ccccc2)NC(=O)[C@H](Cc2ccccc2)NC(=O)CSCCC[C@@H](C(N)=O)NC(=O)[C@H](Cc2ccccc2)NC1=O [CH2 CO.FFWD KTF.Hhc.amide] (FF[dW]KTF[hhCys(CH2CO)]-NH2; lactam N-7),9.39
3,C[C@@H](O)[C@@H]1NC(=O)[C@H](CCCCN)NC(=O)[C@@H](Cc2c[nH]c3ccccc23)NC(=O)[C@H](Cc2ccccc2)NC(=O)[C@H](Cc2ccccc2)NC(=O)CSC[C@@H](C(=O)NCCCCCN(CCNCC(C)(C)S)CC(C)(C)S)NC(=O)[C@H](Cc2ccccc2)NC1=O [CH2 CO.FFWD KTFC.[BAM]] ({CH2CO}-FF[dW]KTFC-X3; thioether N-7),8.72
4,C[C@@H](O)[C@@H]1NC(=O)[C@H](CCCCN)NC(=O)[C@@H](Cc2c[nH]c3ccccc23)NC(=O)[C@H](Cc2ccccc2)NC(=O)[C@H](Cc2ccccc2)NC(=O)CSC[C@@H](C(N)=O)NC(=O)[C@H](Cc2ccccc2)NC1=O [CH2 CO.FFWD KTFC.amide] ({CH2CO}-FF[dW]KTFC-NH2; thioether N-7),9.35
5,C[C@@H](O)[C@@H]1NC(=O)[C@H](CCCCN)NC(=O)[C@@H](Cc2c[nH]c3ccccc23)NC(=O)[C@H](Cc2ccccc2)NC(=O)[C@H](Cc2ccccc2)NC(=O)CSC[C@@H](C(=O)O)NC(=O)[C@H](Cc2ccccc2)NC1=O [CH2 CO.FFWD KTFC] ({CH2CO}-FF[dW]KTFC-OH; thioether N-7),8.40
6,C[C@@H](O)[C@@H]1NC(=O)[C@H](CCCCN)NC(=O)[C@@H](Cc2c[nH]c3ccccc23)NC(=O)[C@H](Cc2ccc(O)cc2)NC(=O)[C@H](Cc2ccccc2)NC(=O)CSC[C@@H](C(N)=O)NC(=O)[C@H](Cc2ccccc2)NC1=O [CH2 CO.FYWD KTFC.amide] ({CH2CO}-FY[dW]KTFC-NH2; thioether N-7),9.80
7,C[C@@H](O)[C@@H]1NC(=O)[C@H](Cc2ccccc2)NC(=O)[C@H]([C@@H](C)O)NC(=O)[C@H](CCCCN)NC(=O)[C@@H](Cc2c[nH]c3ccccc23)NC(=O)[C@H](Cc2ccccc2)NC(=O)[C@H](Cc2ccccc2)NC(=O)[C@H](CC(N)=O)NC(=O)CSC[C@@H](C(=O)O)NC1=O [CH2 CO.NFFWD KTFTC] ({CH2CO}-NFF[dW]KTFTC-OH; thioether N-9),8.57
8,"CC(C)[C@@H]1NC(=O)[C@H](CCCCN)NC(=O)[C@@H](Cc2c[nH]c3ccccc23)NC(=O)[C@H](Cc2ccc(O)cc2)NC(=O)[C@H](Cc2ccccc2)N(C)C(=O)[C@H](CCC(=O)NCCCCCN(CCNCC(C)(C)S)CC(C)(C)S)NC1=O [cyclo.(N--CH3)F.YWD KV.E.[BAM], cyclo.(N--CH3)Phe--Tyr--D--Trp--Lys--Val--Glu(BAM)] (cyclo([NMeF]Y[dW]KVE(X3)))",8.59
9,"CC(C)[C@@H]1NC(=O)[C@H](CCCCN)NC(=O)[C@@H](Cc2c[nH]c3ccccc23)NC(=O)[C@H](Cc2ccc(O)cc2)NC(=O)[C@H](Cc2ccccc2)N(C)C(=O)[C@H](CCCCNC(=O)CCCCN(CCNCC(C)(C)S)CC(C)(C)S)NC1=O [cyclo.(N--CH3)F.YWD KV.K.[BAT], cyclo.(N--CH3)Phe--Tyr--D--Trp--Lys--Val--Lys(BAT)] (cyclo([NMeF]Y[dW]KVK(X9)))",9.34
10,"CC(C)[C@@H]1NC(=O)[C@H](CCCCN)NC(=O)[C@@H](Cc2c[nH]c3ccccc23)NC(=O)[C@H](Cc2ccc(O)cc2)NC(=O)[C@H](CS)NC(=O)[C@H](CS)NC1=O [cyclo.CYWD KVC, cyclo Cys--Tyr--D--Trp--Lys--Val--Cys] (cyclo(CY[dW]KVC))",9.37
